Laboratory results: publication PMC5578373, “Inhibitory Kappa B Kinase α (IKKα) Inhibitors That Recapitulate Their Selectivity in Cells against Isoform-Related Biomarkers” (Journal of Medicinal Chemistry, 2017)
“Also recorded” adds a separate entry of the source. Like-named read-outs stand apart in the source and are kept apart here.

Tests used:
[1] = tested on: IKKβ-dependent p65 (Ser536) phosphorylation in U2OS cells; assay: TNFα-induced p65 (Ser536) phosphorylation in U2OS cells, Western blot; format: cell-based, human; settings: highest concentration 100 μM, TNF-α (10 ng/mL) 30 min
Procedure: (§1) Two IKKβ-dependent readouts were selected to assess selectivity over IKKβ. First, TNFα stimulates IκBα degradation through activation of IKKβ and if IKKβ is inhibited, then a band corresponding to the IκBα protein should be evident by Western analysis. Second, IKKβ phosphorylates p65 on Ser536, which can also be assessed by Western blot analysis. Only at the highest concentration (100 μM) of 48 was IκBα degradation and p65 (Ser536) phosphorylation inhibited (Figure 9b). Even at this high concentration, these effects were not apparent following pretreatment with 47 (Figure 10b).
(§2) Figure 9 Effect of compound 48 on (a) FCS-stimulated noncanonical and (b) TNF-α-induced canonical NF-kB activation in U2OS cells. […] Whole cell lysate were prepared, separated by SDS-PAGE, and assessed for (a) inhibition of p100 phosphorylation (Ser866/870) and (b) IkB-α and p-p65 (Ser536) status. […]
as §2, with “10” for “9”, “47” for “48”
(§3) Whole cell lysates were prepared from U2OS and status of IκBα, p65, p-p65 (Ser536), and p-p100 (Ser 866/870) assessed by Western blotting as described in Mackenzie et al. (2007).[46]

[2] = tested on: IKKβ-dependent IκBα degradation in U2OS cells; assay: TNFα-induced IκBα degradation in U2OS cells, Western blot; format: cell-based, human; settings: highest concentration 100 μM, TNF-α (10 ng/mL) 30 min
Procedure: as §1, §2
as §2, with “10” for “9”, “47” for “48”
as §3

[3] = tested on: IKKα-regulated NF-κB transcriptional activation in IKKβ−/− MEFs; assay: IL-1β-stimulated NF-κB-luciferase transcriptional activity in IKKβ knockout MEFs; format: cell-based, mouse
Procedure: To provide further evidence for cellular activity, mouse embryonic fibroblasts lacking the IKKβ kinase subunit were utilized to investigate the potency of both compounds against agonist-stimulated IKKα-regulated NF-κB transcriptional activation. Cells were infected with an adenovirus encoding an NF-κB-luciferase promoter gene. NF-κB transcriptional activity driven by IKKα was stimulated specifically using IL-1β,[41] and the ability of the compounds to inhibit this response was assessed. […] As IKKα plays a lesser role in the canonical NF-κB cascade,[42] particularly the rapid and transient stimulated degradation of IκBα, selective IKKα inhibitors should not affect TNF-α induced IκBα degradation and p65 phosphorylation.
(§4) U2OS cells were cultured with McCoy’s 5A modified medium and MEF were cultured with DEME medium containing 10% (v/v) FCS and medium was changed every 2 d thereafter until cells became confluent. Cells were incubated at 37 °C in humidified air with 5% CO2 and rendered quiescent by serum deprivation for 24 h prior to stimulation in serum-free medium.
An adenoviral vector encoding NFκB-luciferase (Adv.NFκB-Luc) was purchased from Vector Biolabs (University of Pennsylvania, Philadelphia, US). Large-scale production of high titer recombinant adenovirus was performed by routine methods.[47] IKKβ knockout mouse embryonic fibroblasts (MEFs; kindly provided by Prof. I. Verma, UCSD, USA) were counted when approximately 60–70% confluent in T75 cm^2 flasks and infected with adenovirus up to 300 pfu/cell^–1 for 24 h in 10% DMEM. Cells were then lifted from the flasks and plated into 96-well clear bottom, black luciferase plates and allowed to settle for 24 h before serum starved overnight. Cells were then stimulated with the appropriate agonists for the indicated times and reactions terminated by addition of lysis buffer containing 0.2 mM luciferin substrate. Relative light units (RLU) were measured using a Trilux microbeta counter (luminometer).

[4] = tested on: IKKα-driven p100 phosphorylation in U2OS cells; assay: FCS-stimulated p100 phosphorylation (Ser866/870) in U2OS cells, Western blot; format: cell-based, human; settings: 1 h pretreatment, FCS (10%) for 4 h, blots quantified, read-out: IC50 for inhibition of p100 phosphorylation
Procedure: as §1
(§5) Figure 9 Effect of compound 48 on (a) FCS-stimulated noncanonical and (b) TNF-α-induced canonical NF-kB activation in U2OS cells. Cells were pretreated with 48 1 h prior to stimulation with FCS (10%) for 4 h or TNF-α (10 ng/mL) for 30 min. Whole cell lysate were prepared, separated by SDS-PAGE, and assessed for (a) inhibition of p100 phosphorylation (Ser866/870) and (b) IkB-α and p-p65 (Ser536) status. […] The results are representative of three independent experiments.
as §5, with “10” for “9”, “47” for “48”
as §4, §3

IC50 [4]: 19.1 µM
IC50 ([4]; Homo sapiens, U2OS): 13.9 µM
SMILES: N#Cc1c[nH]c2nc(N)nc(-c3ccc(CO)cc3)c12 [Compound 47, 2-Amino-4-(4-hydroxymethyl)phenyl-7H-pyrrolo[2,3-d]pyrimidine-5-carbonitrile]
inhibition of TNFα-stimulated p65 (Ser536) phosphorylation [1]: not apparent; also recorded: did not affect
inhibition of TNFα-stimulated IκBα degradation [2]: not apparent; also recorded: did not affect
% stimulation ([3]; 100 μM compound, 1 h pretreatment, IL-1β (10 ng/mL) 6 h, IL-1β + DMSO = 100, mean ± SEM): –40.9 ± 4.6 %
inhibition of NF-κB transcriptional activity ([3]; maximal concentrations of 50–100 μM): approximately 81%
% stim ([3]; maximal concentrations of 50–100 μM, Il-1β+DMSO = 100%): 18.79 ± 7.2%
